We go through seven molecules from PubChem BioAssay (NCI).

SMILES strings stand for the structures.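 How tested: cells in 96-well plates exposed to compound for 48 hours at five concentrations. GI50 is the concentration that inhibits growth by half. TGI marks complete inhibition of growth.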

Test systems include 786-0 renal; ACHN renal; HCT-116 colon; HOP-62 NSCLC; HT29 colon; IGROV1 ovarian; M14 melanoma; RXF 393 renal; SF-539 CNS; SW-620 colon.
Common to all, as to test: inhibition of tumour cell growth, NCI panel, 48 h

On to `Oc1cc(Cl)ccc1Oc1ccc(Cl)cc1Cl`, for which the GI50 in the assay with 786-0 renal was 2.47 µM; in the assay on ACHN renal it was 3.47 µM; with HCT-116 colon, 2.55 µM; with HOP-62 NSCLC, 2.27 µM; with HT29 colon, 3.27 µM; in the assay with IGROV1 ovarian it was 4.73 µM. Further, the GI50 is 2.86 µM with M14 melanoma, 2.06 µM in the assay on RXF 393 renal, 2.58 µM in the assay on SF-539 CNS and 3.51 µM in the assay with SW-620 colon. Further, the TGI with 786-0 renal turned out to be 6.61 µM; with ACHN renal, 11.3 µM; in the assay with HCT-116 colon, 6.43 µM; in the assay with HOP-62 NSCLC, 5.16 µM; in the assay with HT29 colon, 10.2 µM; in the assay on IGROV1 ovarian, 17 µM. Also, the TGI was 7.24 µM in the assay on M14 melanoma, 5.09 µM in the assay on RXF 393 renal, 7.74 µM in the assay with SF-539 CNS and 12.7 µM in the assay on SW-620 colon.

`CCOC(=O)c1c(C)n(Cc2ccc(Cl)cc2Cl)c2c1cc1oc(=O)c(=O)n3c(Cc4ccccc4)nc2c13`: the GI50 with 786-0 renal was 5.18 µM; in the assay on ACHN renal, 3.06 µM; in the assay on HCT-116 colon it was 2.05 µM; with HOP-62 NSCLC, 5.37 µM; in the assay on HT29 colon, 4.65 µM; with IGROV1 ovarian it was 2.11 µM. The GI50 was 13 µM in the assay on M14 melanoma, 2.98 µM in the assay on RXF 393 renal, 8.44 µM with SF-539 CNS and 1.95 µM with SW-620 colon. Further, the TGI in the assay with 786-0 renal stood at 19.2 µM; in the assay on ACHN renal, 11.8 µM; in the assay with HCT-116 colon, 4.87 µM; with HOP-62 NSCLC it was 18.3 µM; with HT29 colon it was 17.4 µM; in the assay on IGROV1 ovarian it was 15.2 µM. Also, the TGI amounted to 36.7 µM in the assay with M14 melanoma, 7.34 µM with RXF 393 renal, 20.7 µM in the assay on SF-539 CNS and 4.3 µM with SW-620 colon.

Regarding `CC(=O)NC(CCCN(Cc1ccccc1)C(=O)N(CCCl)N=O)C(=O)NCc1ccccc1` (stereo not given), the TGI with 786-0 renal is > 58.7 µM; with ACHN renal, > 96.3 µM; in the assay with HCT-116 colon it was > 100 µM; in the assay with HOP-62 NSCLC, 46.3 µM; with HT29 colon, > 100 µM; with IGROV1 ovarian, > 100 µM. Moreover, the TGI with M14 melanoma was > 100 µM; in the assay on RXF 393 renal, 68.9 µM; in the assay on SF-539 CNS, 20.6 µM; with SW-620 colon, > 100 µM.

For `O=c1oc2ccc(Cl)cc2c(=O)n1-c1ccc(I)cc1F`, the GI50 was 1.36 µM with 786-0 renal; 0.315 µM with ACHN renal; 0.255 µM with HCT-116 colon; 0.855 µM in the assay on HOP-62 NSCLC; 3.41 µM in the assay with HT29 colon; 0.19 µM in the assay with IGROV1 ovarian. Further, the GI50 with M14 melanoma was 0.165 µM; in the assay on RXF 393 renal, 0.339 µM; with SF-539 CNS, 0.231 µM; in the assay with SW-620 colon, 0.384 µM. Besides, the TGI was 4.13 µM in the assay on 786-0 renal; 7.51 µM with ACHN renal; 1.35 µM in the assay on HCT-116 colon; 3.75 µM in the assay with HOP-62 NSCLC; 22.6 µM in the assay on HT29 colon; > 42.3 µM in the assay on IGROV1 ovarian. The TGI worked out at 1.4 µM in the assay with M14 melanoma, 1.57 µM in the assay on RXF 393 renal, 2.69 µM in the assay with SF-539 CNS and 7.58 µM in the assay on SW-620 colon.

With `CN(C)c1ccc(N=Nc2c([O-])ccc3ccccc23)cc1.[C-]#[O+].[C-]#[O+].[Ir]`, the GI50 in the assay on 786-0 renal is 26.4 µM; with ACHN renal it was 5.43 µM; with HCT-116 colon, 19.5 µM; with HOP-62 NSCLC, > 100 µM; with HT29 colon it was 28.5 µM; in the assay with IGROV1 ovarian, 17.9 µM. Moreover, the GI50 is 21.9 µM in the assay with M14 melanoma, 18.3 µM in the assay on RXF 393 renal, 16.3 µM in the assay with SF-539 CNS and 1.48 µM in the assay with SW-620 colon. The TGI is > 56.3 µM in the assay on 786-0 renal; 55.2 µM in the assay with ACHN renal; 38.4 µM with HCT-116 colon; > 100 µM with HOP-62 NSCLC; > 73.1 µM in the assay with HT29 colon; 52.7 µM in the assay with IGROV1 ovarian. Further, the TGI came out at 46.6 µM with M14 melanoma, 32.9 µM in the assay with RXF 393 renal, 25.6 µM with SF-539 CNS and 25.7 µM in the assay on SW-620 colon.

In the case of `O=C(NN1C(=O)CSC1c1ccc(Cl)cc1)c1[nH]c2ccc(F)cc2c1-c1ccccc1` (stereo not given), the GI50 with 786-0 renal is 1.89 µM; in the assay with ACHN renal, 3.28 µM; in the assay with HCT-116 colon, 1.87 µM; in the assay with HOP-62 NSCLC, 2.34 µM; in the assay on HT29 colon it was 3.09 µM; with IGROV1 ovarian, 3.89 µM. The GI50 is 2.5 µM in the assay on M14 melanoma, 3.42 µM in the assay with RXF 393 renal, 6.08 µM with SF-539 CNS and 2.98 µM with SW-620 colon. Further, the TGI with 786-0 renal was found to be 3.6 µM; in the assay with ACHN renal it was 12.2 µM; in the assay with HCT-116 colon, 4.11 µM; in the assay on HOP-62 NSCLC it was 5.55 µM; with HT29 colon, 10.5 µM; in the assay on IGROV1 ovarian, 11.5 µM. The TGI with M14 melanoma is 6.45 µM; in the assay on RXF 393 renal it was 15.4 µM; with SF-539 CNS it was 13.5 µM; in the assay on SW-620 colon it was 8.92 µM.

On to `COc1cc(/C=C(/c2ccccc2)[N+](=O)[O-])c(OC)c2c1OCO2`, for which the GI50 with 786-0 renal was 1.62 µM; with ACHN renal, 1.71 µM; with HCT-116 colon it was 1.3 µM; in the assay on HOP-62 NSCLC, 2.32 µM; in the assay on HT29 colon it was 2.64 µM; with IGROV1 ovarian it was 1.16 µM. For the same molecule, the GI50 was 1.56 µM in the assay with M14 melanoma, 1.49 µM in the assay with RXF 393 renal, 1.7 µM with SF-539 CNS and 1.52 µM with SW-620 colon. In addition, the TGI in the assay on 786-0 renal was 3.05 µM; in the assay on ACHN renal it was 3.08 µM; in the assay with HCT-116 colon, 3 µM; with HOP-62 NSCLC, 5.12 µM; in the assay with HT29 colon, 13.1 µM; in the assay with IGROV1 ovarian, 2.6 µM. The TGI with M14 melanoma stood at 3.3 µM; in the assay with RXF 393 renal, 2.85 µM; in the assay with SF-539 CNS, 3.09 µM; with SW-620 colon, 3.56 µM.
